Holding throughout (assay type): in vivo
For assay [1], the system named is Mycosphaerella graminicola; Anamorph: Septoria tritici. The assay can be described thus: Fungicidal activity: Leaf Blotch of Wheat (SEPTTR). To be noted: Zymoseptoria tritici, wheat leaf blotch; for pest or weed control at 121.5 g/ha: Low Volume (121.5 g/H); for pest or weed control at 100 µg/mL: High Volume (100 ppm). In short, it runs like this: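 Compounds were dissolved in acetone, diluted with nine volumes of water containing 110 ppm Triton X-100, and sprayed to run-off on first-leaf Yuma wheat seedlings inoculated with Septoria tritici spores before or after treatment. Plants were held in a dew chamber, then a 20° C. greenhouse. Percent control was derived from disease severity relative to untreated plants.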

The next assay relates to Puccinia triticina. The assay can be described thus: Fungicidal activity: Wheat Brown Rust (PUCCRT). To be noted: for pest or weed control at 121.5 g/ha: Low Volume (121.5 g/H); for pest or weed control at 100 µg/mL: High Volume (100 ppm). In short, it runs like this:
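Percent control of brown rust was derived from 0-100% severity on treated versus untreated first leaves. Yuma wheat seedlings were spray-treated to run-off (acetone/water, Triton X-100) and inoculated with P. triticina spores before or after treatment, then held overnight in dark dew at 22° C and moved to a 24° C greenhouse.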

Assay [2] relates to Glomerella lagenarium; Anamorph: Colletotrichum lagenarium. The assay can be described thus: Fungicidal activity: Cucumber Anthracnose (COLLLA). To be noted: 100 ppm, 1 DP (1 Day Protectant). As to the method:
Technical grades of materials were dissolved in acetone, which were then mixed with nine volumes of water containing 110 ppm Triton X-100. The fungicide solutions were applied onto wheat seedlings using an automated booth sprayer to run-off. All sprayed plants were allowed to air dry prior to further handling. All fungicides were evaluated using the aforementioned method for their activity vs. all target diseases, unless stated otherwise. Wheat leaf blotch and brown rust activity were also evaluated using track spray applications, in which case the fungicides were formulated as EC formulations, containing 0.1% Trycol 5941 in the spray solutions. Wheat plants (variety Yuma) were grown from seed in a greenhouse in 50% mineral soil/50% soil-less Metro mix until the first leaf was fully emerged, with 7-10 seedlings per pot. These plants were inoculated with an aqueous spore suspension of Septoria tritici either prior to or after fungicide treatments. After inoculation the plants were kept in 100% relative humidity (one day in a dark dew chamber followed by two to three days in a lighted dew chamber at 20° C.) to permit spores to germinate and infect the leaf. The plants were then transferred to a greenhouse set at 20° C. for disease to develop. When disease symptoms were fully expressed on the 1st leaves of untreated plants, infection levels were assessed on a scale of 0 to 100 percent disease severity. Percent disease control was calculated using the ratio of disease severity on treated plants relative to untreated plants. Evaluation of Fungicidal Activity: Cucumber Anthracnose (Glomerella lagenarium; Anamorph: Colletotrichum lagenarium; Bayer Code COLLLA) Cucumber seedlings (variety Bush Pickle) were propagated in soil-less Metro mix, with each pot having one plant, and used in the test when 12 to 14 days old. Test plants were inoculated with an aqueous spore suspension of Colletotrichum lagenarium 24 hr after fungicide treatments. After inoculation the plants were kept in a dew room at 22° C. with 100% relative humidity for 48 hr to permit spores to germinate and infect the leaf. The plants were then transferred to a growth room set at 22° C. for disease to develop. Fungicide formulation, application and disease assessment on the sprayed leaves followed the procedures as described in the Example A.

Where [3] appears, read: 24 h, 1 Day Protectant, read-out: SEPTTR 1 DP disease control.
Setting [4] is: 72 h, 3 Day Curative, read-out: SEPTTR 3 DC disease control.
Setting [5] is: 24 h, 1 Day Protectant, read-out: PUCCRT 1 DP disease control.
Where [6] appears, read: 72 h, 3 Day Curative, read-out: PUCCRT 3 DC disease control.

Where two headings read alike, the source gives them in different places.

In the case of `CCCC[C@@H]1[C@@H](Cc2ccc(C(F)(F)F)cc2)COC[C@H](NC(=O)c2nccc(OC)c2OCOC(C)=O)C(=O)O[C@H]1C` [compound 16], the pest or weed control at 121.5 g/ha (in assay [1] (setting [3]); in assay [1] (setting [4]); in the assay on Puccinia triticina (setting [5]); in the assay with Puccinia triticina (setting [6])) was over 70% each time. The “COLLLA disease control rating” value in assay [2] is reported as “A (>70)”.

Consider `COc1ccnc(C(=O)N[C@H]2COC[C@H](Cc3ccccc3)[C@@H](Cc3ccccc3)[C@H](C)OC2=O)c1OC(C)=O` [compound 27], for which the pest or weed control at 121.5 g/ha (in assay [1] (setting [3]); in assay [1] (setting [4]); in the assay on Puccinia triticina (setting [5]); with Puccinia triticina (setting [6])) was over 70% throughout. Moreover, the “COLLLA disease control rating” value in assay [2] was “A (>70)”.

Take `COc1ccnc(C(=O)N[C@H]2COC[C@H](c3ccccc3)[C@@H](c3ccccc3)[C@H](C)OC2=O)c1OCOC(C)=O` [compound 7]: the pest or weed control at 100 µg/mL (in assay [1] (setting [3]); in assay [1] (setting [4]); in the assay on Puccinia triticina (setting [5]); in the assay on Puccinia triticina (setting [6])) was over 70% each time. Further, the pest or weed control at 121.5 g/ha (in assay [1] (setting [3]); in assay [1] (setting [4]); in the assay with Puccinia triticina (setting [5]); with Puccinia triticina (setting [6])) was over 70% in each case. Further, the “COLLLA disease control rating” value in assay [2] is listed as “A (>70)”.

With `COc1ccnc(C(=O)N[C@H]2COC[C@H](Cc3ccccc3)[C@@H](Cc3ccccc3)[C@H](C)OC2=O)c1OCOC(C)=O` [Cmpd. 3, ((2-(((3S,7R,8R,9S)-7,8-dibenzyl-9-methyl-2-oxo-1,5-dioxonan-3-yl)carbamoyl)-4-methoxypyridin-3-yl)oxy)methyl acetate], the pest or weed control at 100 µg/mL is over 70% in assay [1] (setting [3]), over 70% in assay [1] (setting [4]), over 70% in the assay with Puccinia triticina (setting [5]) and under 70% in the assay with Puccinia triticina (setting [6]). Further, the pest or weed control at 121.5 g/ha (in assay [1] (setting [3]); in assay [1] (setting [4]); in the assay on Puccinia triticina (setting [5]); with Puccinia triticina (setting [6])) was over 70% in each case. The “COLLLA disease control rating” value in assay [2] is on record as “A (>70)”.

On to `COc1ccnc(C(=O)N[C@H]2COC[C@H](CC3CC3)[C@@H](c3ccccc3)[C@H](C)OC2=O)c1OC(C)=O` [compound 100], for which the pest or weed control at 121.5 g/ha (in assay [1] (setting [3]); in assay [1] (setting [4]); in the assay with Puccinia triticina (setting [5]); in the assay on Puccinia triticina (setting [6])) was over 70% throughout. For the same molecule, the “COLLLA disease control rating” value in assay [2] is listed as “A (>70)”.

For the molecule `CCCC[C@@H]1[C@@H](Cc2ccccc2)COC[C@H](NC(=O)c2nccc(OC)c2OCOC(=O)C(C)C)C(=O)O[C@H]1C` [compound 1], the pest or weed control at 100 µg/mL (in assay [1] (setting [3]); in assay [1] (setting [4]); in the assay on Puccinia triticina (setting [5]); in the assay with Puccinia triticina (setting [6])) was over 70% each time. The pest or weed control at 121.5 g/ha is over 70% in assay [1] (setting [3]), over 70% in assay [1] (setting [4]), over 70% with Puccinia triticina (setting [5]) and under 70% in the assay on Puccinia triticina (setting [6]). In assay [2], the “COLLLA disease control rating” value is “A (>70)”.

Values taken from patent US9955691B2, “Macrocyclic picolinamides as fungicides” (DOW AGROSCIENCES LLC, priority 2014, dated 2018).
